Test results: patent US11446287B2, “Compounds and methods for EP300 or CBP modulation and indications therefor” (Opna Immuno-Oncology SA, priority 2019, dated 2022)

biological target: T1, Recombinant human CBP containing the bromodomain (CBP-BD (1043-1159)) (Homo sapiens, UniProt Q92793); test: CBP Alphascreen binding assay; conditions: read-out: CREBBP (CBP) IC50
T1 construct: Recombinant human CBP bromodomain (CBP-BD (1043-1159)); made in house; host or cells: E. coli BL21-CodonPlus (DE3), modified pET vector
Outline: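 Buffer: 50 mM HEPES pH 7.5, 50 mM NaCl, 0.01% BSA, 0.01% Triton X-100, 2 mM DTT. The signal was normalised to plate controls and fitted with a four-parameter curve to give IC50.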

T1 sequence (Q92793 1081-1197): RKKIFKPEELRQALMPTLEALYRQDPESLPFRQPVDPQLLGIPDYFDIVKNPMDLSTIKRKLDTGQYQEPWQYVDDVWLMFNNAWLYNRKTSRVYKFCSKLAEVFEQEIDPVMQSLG

SMILES | IC50
Cc1noc(C)c1-c1cnc2c(c1)c(-c1ccc(C(=O)O)cc1)cn2C(C)c1ncccn1 (stereo not shown) [P-0013, 4-(5-(3,5-dimethylisoxazol-4-yl)-1-(1-(pyrimidin-2-yl)ethyl)-1H-pyrrolo[2,3-b]pyridin-3-yl)benzoic acid] | 0.1 to 1000 nM
Cc1noc(C)c1-c1cnc2c(c1)c(-c1ccc(C(=O)O)cc1)cn2C(C)c1ccc(F)cn1 (stereo not shown) [P-0014, 4-(5-(3,5-dimethylisoxazol-4-yl)-1-(1-(5-fluoropyridin-2-yl)ethyl)-1H-pyrrolo[2,3-b]pyridin-3-yl)benzoic acid] | 0.1 to 1000 nM
Cc1noc(C)c1-c1cnc2c(c1)c(-c1cccc(C(=O)O)c1)cn2C(c1ccccn1)C1CCCC1 (stereo not shown) [P-0015, 3-(1-(cyclopentyl(pyridin-2-yl)methyl)-5-(3,5-dimethylisoxazol-4-yl)-1H-pyrrolo[2,3-b]pyridin-3-yl)benzoic acid] | 0.1 to 1000 nM
Cc1noc(C)c1-c1cnc2c(c1)c(-c1ccc(F)c(C(=O)O)c1)cn2C(c1ccccn1)C1CCCC1 (stereo not shown) [P-0016, 5-(1-(cyclopentyl(pyridin-2-yl)methyl)-5-(3,5-dimethylisoxazol-4-yl)-1H-pyrrolo[2,3-b]pyridin-3-yl)-2-fluorobenzoic acid] | 0.1 to 1000 nM
Cc1noc(C)c1-c1cnc2c(c1)c(-c1ccnc(C(=O)O)c1)cn2C(c1ccccn1)C1CCCC1 (stereo not shown) [P-0017, 4-(1-(cyclopentyl(pyridin-2-yl)methyl)-5-(3,5-dimethylisoxazol-4-yl)-1H-pyrrolo[2,3-b]pyridin-3-yl)picolinic acid] | 0.1 to 1000 nM
Cc1noc(C)c1-c1cnc2c(c1)c(-c1cccc(CC(=O)O)c1)cn2C(c1ccccn1)C1CCCC1 (stereo not shown) [P-0018, 2-(3-(1-(cyclopentyl(pyridin-2-yl)methyl)-5-(3,5-dimethylisoxazol-4-yl)-1H-pyrrolo[2,3-b]pyridin-3-yl)phenyl)acetic acid] | 0.1 to 1000 nM
Cc1noc(C)c1-c1cnc2c(c1)c(-c1ccncc1)cn2C(c1ccccn1)C1CCCC1 (stereo not shown) [P-0019, 4-(1-(cyclopentyl(pyridin-2-yl)methyl)-3-(pyridin-4-yl)-1H-pyrrolo[2,3-b]pyridin-5-yl)-3,5-dimethylisoxazole] | 1000 to 8000 nM
Cc1noc(C)c1-c1cnc2c(c1)c(-c1ccc(C(=O)O)cc1OC1CC1)cn2[C@@H](C)c1ccccn1 [P-0170, (S)-3-cyclopropoxy-4-(5-(3,5-dimethylisoxazol-4-yl)-1-(1-(pyridin-2-yl)ethyl)-1H-pyrrolo[2,3-b]pyridin-3-yl)benzoic acid] | 0.1 to 1000 nM
Cc1noc(C)c1-c1cnc2c(-c3ccc(C(=O)O)cc3C#CC3CC3)cn([C@@H](C)c3ccccn3)c2c1 [P-0171, (S)-3-(cyclopropylethynyl)-4-(6-(3,5-dimethylisoxazol-4-yl)-1-(1-(pyridin-2-yl)ethyl)-1H-pyrrolo[3,2-b]pyridin-3-yl)benzoic acid] | 0.1 to 1000 nM
COc1ccc(C(=O)O)cc1-c1cn(C(C)(c2ccccn2)c2ccccn2)c2cc(-c3c(C)noc3C)cnc12 [P-0172, 3-(1-(1,1-di(pyridin-2-yl)ethyl)-6-(3,5-dimethylisoxazol-4-yl)-1H-pyrrolo[3,2-b]pyridin-3-yl)-4-methoxybenzoic acid] | 1000 to 8000 nM
CCOc1cc(C(=O)O)cc(OCC)c1-n1cc(-c2cccnc2)c2ncc(-c3c(C)noc3C)cc21 [P-0173, 4-(6-(3,5-dimethylisoxazol-4-yl)-3-(pyridin-3-yl)-1H-pyrrolo[3,2-b]pyridin-1-yl)-3,5-diethoxybenzoic acid] | 0.1 to 1000 nM
CCOc1cc(C(=O)O)cc(OC(C)C)c1-c1cn([C@@H](C)c2ccccn2)c2ncc(-c3c(C)noc3C)cc12 [P-0174, (S)-4-(5-(3,5-dimethylisoxazol-4-yl)-1-(1-(pyridin-2-yl)ethyl)-1H-pyrrolo[2,3-b]pyridin-3-yl)-3-ethoxy-5-isopropoxybenzoic acid] | 0.1 to 1000 nM
Cc1noc(C)c1-c1cnc2c(c1)c(-c1ccc(C(=O)O)cc1OC(F)(F)F)cn2-c1cccnc1 [P-0175, 4-(5-(3,5-dimethylisoxazol-4-yl)-1-(pyridin-3-yl)-1H-pyrrolo[2,3-b]pyridin-3-yl)-3-(trifluoromethoxy)benzoic acid] | 0.1 to 1000 nM
